These results are taken from PMC7556317 (Chembiochem : a European journal of chemical biology, 2009).

For one experiment, the system named is BT474 breast tumor cells. To be noted: xenografts bearing BT474 breast tumor cells; cited from earlier work.
The next experiment concerns Her-2 in SkBr3 cells. Nature of the experiment: Her-2 depletion in SkBr3 cells as pharmacodynamic marker of cellular efficacy. The format is cell-based. To be noted: read-out: PD (Her-2 depletion in SkBr3 cells, EC50); SkBr3 cells treated with the inhibitor overnight.

For `O=C1OCC/C=C/CC/C=C/C(=N/OCC(=O)N2CCCCC2)Cc2c(Cl)c(O)cc(O)c21` [Pochoxime A], the “Effect on tumor in xenografts” value in the experiment on BT474 breast tumor cells is “tumor regression”.
For the molecule `CC1=CC(=NOCC(=O)N2CCCCC2)Cc2cc(O)cc(O)c2C(=O)OCCC=CCC1` [Compound A1B3C4D1], the EC50 in the experiment with Her-2 in SkBr3 cells was not above 500 nM.
Take `CC1C=CCCOC(=O)c2c(O)cc(O)cc2CC(=NOCC(=O)N2CCCCC2)C=CC1` (stereo not drawn) [Compound A1B4C4D1]: the EC50 in the experiment with Her-2 in SkBr3 cells is not above 500 nM.
